pIC50: −log10 of the molar value.

The target in the experiment is T1, Recombinant human HSD17B13 enzyme (Homo sapiens, UniProt Q7Z5P4).
T1 sequence (Q7Z5P4 20-300): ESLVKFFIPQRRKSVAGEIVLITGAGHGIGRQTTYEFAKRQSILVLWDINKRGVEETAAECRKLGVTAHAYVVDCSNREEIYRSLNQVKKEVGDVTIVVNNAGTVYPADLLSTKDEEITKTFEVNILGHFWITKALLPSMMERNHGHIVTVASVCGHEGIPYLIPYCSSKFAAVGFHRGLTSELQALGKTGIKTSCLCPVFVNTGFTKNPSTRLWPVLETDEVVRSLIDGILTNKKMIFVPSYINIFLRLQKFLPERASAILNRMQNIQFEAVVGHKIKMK
The experiment in a line: HSD17b13 NAD(P)H-Glo biochemical assay. The note with it: 50 uM estradiol, 1 mM NAD+, NAD(P)H-Glo luminescence; read-out: HSD17β13 IC50. The protocol: Example B-1: HSD17b13 NAD(P)H-Glo Biochemical Assay
Recombinant human HSD17B13 enzyme. Substrate: estradiol (Sigma β-Estradiol E8875), 100 mM in DMSO. Cofactor: NAD+ Grade I free acid (Sigma 10127965001), 20 mM in H2O. Assay buffer final concentration: 20 mM Tris pH7.4 with 0.002% Tween-20 and 0.02% BSA. Assay performed in 384 well solid bottom plate (Corning 3570). Enzymatic activity detected by NAD(P)H-Glo™ Detection System (Promega G9062).
Inhibitor compounds were serially diluted in DMSO and then further diluted in assay buffer to a 10× concentration consisting of 1% DMSO.
HSD17b13 enzyme was diluted in 1× assay buffer to the desired enzyme concentration based on the specific activity of the enzyme lot. 20 uL of diluted enzyme was added to each well along with 2.5 uL of 10× inhibitor solution. Assay plate was incubated at RT for 20 minutes, and then 2.5 uL of a 10× substrate/cofactor mix was added to each well for a final concentration of 50 uM estradiol and 1 mM NAD+. Assay plate was incubated at 37° C. for 3 hours. NAD(P)H-Glo™ Detection System reagents were prepared according to manufacturer's specifications, and 25 uL was added to each well. After incubating for 1 hour at RT, luminescence was measured.

Take `NS(=O)(=O)c1ccc(-c2ccc(-n3ncc4cc(F)c(O)cc43)cc2)cc1` [Compound 13.38, 4′-(5-Fluoro-6-hydroxy-1H-indazol-1-yl)-[1,1′-biphenyl]-4-sulfonamide]: the negative logarithm of the IC50 (pIC50) was more than 7.00.
The value for `N#Cc1ccc(-c2ccc(-n3ncc4cc(F)c(O)c(F)c43)cc2)cc1` [Compound 13.39, 4′-(5,7-Difluoro-6-hydroxy-1H-indazol-1-yl)-[1,1′-biphenyl]-4-carbonitrile] was more than 7.00.
Consider `CS(=O)(=O)c1ccc(-c2ccc(-n3ncc4cc(F)c(O)c(F)c43)cc2)cc1` [Compound 13.40, 5,7-Difluoro-1-(4′-(methylsulfonyl)-[1,1′-biphenyl]-4-yl)-1H-indazol-6-ol], for which the negative logarithm of the IC50 (pIC50) is 6.00 to 7.00.
The result for `N#Cc1ccc(-c2ccc(-n3ncc4cc(F)c(O)c(F)c43)cc2)cn1` [Compound 14, 5-(4-(5,7-Difluoro-6-hydroxy-1H-indazol-1-yl)phenyl)picolinonitrile] reads more than 7.00.
In the case of `Oc1c(F)cc2cnn(-c3ccc(-c4cn[nH]c4)cc3)c2c1F` [Compound 14.1, 1-(4-(1H-Pyrazol-4-yl)phenyl)-5,7-difluoro-1H-indazol-6-ol], the pIC50 is 6.00 to 7.00.
Turning to `Oc1c(F)cc2cnn(-c3ccc(-c4cc[nH]n4)cc3)c2c1F` [Compound 14.2, 1-(4-(1H-Pyrazol-3-yl)phenyl)-5,7-difluoro-1H-indazol-6-ol], the pIC50 was 6.00 to 7.00.
The result for `Oc1c(F)cc2cnn(-c3ccc(-c4cccnc4)cc3)c2c1F` [Compound 14.3, 5,7-Difluoro-1-(4-(pyridin-3-yl)phenyl)-1H-indazol-6-ol] reads more than 7.00.
The value for `Oc1c(F)cc2cnn(-c3ccc(-c4ccncc4)cc3)c2c1F` [Compound 14.4, 5,7-Difluoro-1-(4-(pyridin-4-yl)phenyl)-1H-indazol-6-ol] was more than 7.00; that for `Oc1cc2c(cnn2-c2ccc(-c3ccc(O)c(Cl)c3)cc2)cc1F` [Compound 15, 1-(3′-Chloro-4′-hydroxy-[1,1′-biphenyl]-4-yl)-5-fluoro-1H-indazol-6-ol] was 6.00 to 7.00.
As to `Cc1cc(-c2ccc(O)cc2)ccc1-n1ncc2cc(F)c(O)cc21` [Compound 15.1, 5-Fluoro-1-(4′-hydroxy-3-methyl-[1,1′-biphenyl]-4-yl)-1H-indazol-6-ol], the pIC50 is 6.00 to 7.00.
For the compound `Oc1ccc(-c2ccc(-n3ncc4cc(F)c(O)cc43)cn2)cc1` [Compound 15.2, 5-Fluoro-1-(6-(4-hydroxyphenyl)pyridin-3-yl)-1H-indazol-6-ol], the pIC50 is 6.00 to 7.00.
With `Oc1ccc(-c2ccc(-n3ncc4cc(F)c(O)cc43)nc2)cc1` [Compound 15.3, 5-Fluoro-1-(5-(4-hydroxyphenyl)pyridin-2-yl)-1H-indazol-6-ol], the pIC50 is 6.00 to 7.00.
For the compound `Oc1cccc(-c2ccc(-n3ncc4c(F)c(F)c(O)c(F)c43)cc2)c1` [Compound 15.4, 4,5,7-Trifluoro-1-(3′-hydroxy-[1,1′-biphenyl]-4-yl)-1H-indazol-6-ol], the pIC50 is 6.00 to 7.00.
As to `Oc1cccc(-c2ccc(-n3ncc4c(F)cc(O)c(F)c43)cc2)c1` [Compound 16, 4,7-Difluoro-1-(3′-hydroxy-[1,1′-biphenyl]-4-yl)-1H-indazol-6-ol], the pIC50 is 6.00 to 7.00.
Regarding `Oc1cccc(-c2ccc(-n3ncc4cc(F)c(O)c(Cl)c43)cc2)c1` [Compound 17, 7-Chloro-5-fluoro-1-(3′-hydroxy-[1,1′-biphenyl]-4-yl)-1H-indazol-6-ol], the pIC50 was 6.00 to 7.00.
Regarding `Oc1c(F)cc2cnn(-c3cnc(-c4ccc(Cl)cc4)cn3)c2c1F` [Compound 18, 1-(5-(4-Chlorophenyl)pyrazin-2-yl)-5,7-difluoro-1H-indazol-6-ol], the pIC50 was more than 7.00.
On to `Oc1ccc2cnn(-c3ccc(-c4ccc(O)c(Cl)c4)cc3)c2c1` [Compound 18.1, 1-(3′-Chloro-4′-hydroxy-[1,1′-biphenyl]-4-yl)-1H-indazol-6-ol], for which the negative logarithm of the IC50 (pIC50) is 6.00 to 7.00.
In the case of `Oc1c(F)cc2cnn(-c3ccc(-c4ccc(Cl)cc4)nc3)c2c1F` [Compound 18.2, 1-(6-(4-Chlorophenyl)pyridin-3-yl)-5,7-difluoro-1H-indazol-6-ol], the pIC50 was more than 7.00.
The value for `Oc1c(F)cc2cnn(-c3ccc(-c4ccc(Cl)cc4)cn3)c2c1F` [Compound 18.3, 1-(5-(4-Chlorophenyl)pyridin-2-yl)-5,7-difluoro-1H-indazol-6-ol] was more than 7.00.
Turning to `Oc1c(F)cc2cnn(-c3ncc(-c4ccc(Cl)cc4)cn3)c2c1F` [Compound 18.4, 1-(5-(4-Chlorophenyl)pyrimidin-2-yl)-5,7-difluoro-1H-indazol-6-ol], the pIC50 was more than 7.00.
Turning to `CS(=O)(=O)N1CCN(c2ccc(-n3ncc4cc(F)c(O)c(F)c43)cc2)CC1` [Compound 19, 5,7-Difluoro-1-(4-(4-(methylsulfonyl)piperazin-1-yl)phenyl)-1H-indazol-6-ol], the pIC50 is 6.00 to 7.00.
The result for `CS(=O)(=O)N1CCN(c2ccc(-n3ncc4cc(F)c(O)c(F)c43)cc2Cl)CC1` [Compound 19.1, 1-(3-Chloro-4-(4-(methylsulfonyl)piperazin-1-yl)phenyl)-5,7-difluoro-1H-indazol-6-ol] reads more than 7.00; that for `CS(=O)(=O)N1CCN(c2ccc(-n3ncc4cc(F)c(O)c(F)c43)c(Cl)c2)CC1` [Compound 20.1, 1-(2-Chloro-4-(4-(methylsulfonyl)piperazin-1-yl)phenyl)-5,7-difluoro-1H-indazol-6-ol], more than 7.00.
The result for `Cc1cc(N2CCN(S(C)(=O)=O)CC2)ccc1-n1ncc2cc(F)c(O)c(F)c21` [Compound 20.2, 5,7-Difluoro-1-(2-methyl-4-(4-(methylsulfonyl)piperazin-1-yl)phenyl)-1H-indazol-6-ol] reads 6.00 to 7.00.
As to `Cc1cc(-n2ncc3cc(F)c(O)c(F)c32)ccc1N1CCN(S(C)(=O)=O)CC1` [Compound 20.3, 5,7-Difluoro-1-(3-methyl-4-(4-(methylsulfonyl)piperazin-1-yl)phenyl)-1H-indazol-6-ol], the pIC50 is more than 7.00.
Take `CC1CN(c2ccc(-n3ncc4cc(F)c(O)c(F)c43)cc2)CCO1` (stereo not drawn) [Compound 20.4, 5,7-Difluoro-1-(4-(2-methylmorpholino)phenyl)-1H-indazol-6-ol]: the pIC50 was more than 7.00.
In the case of `CC1(C)CN(c2ccc(-n3ncc4cc(F)c(O)c(F)c43)cc2)CCO1` [Compound 20.5, 1-(4-(2,2-Dimethylmorpholino)phenyl)-5,7-difluoro-1H-indazol-6-ol], the negative logarithm of the IC50 (pIC50) was more than 7.00.
`CC1(C)COCCN1c1ccc(-n2ncc3cc(F)c(O)c(F)c32)cc1` [Compound 20.6, 1-(4-(3,3-Dimethylmorpholino)phenyl)-5,7-difluoro-1H-indazol-6-ol]: the pIC50 was 6.00 to 7.00.
The value for `C[C@@H]1CN(c2ccc(-n3ncc4cc(F)c(O)c(F)c43)cc2)C[C@H](C)O1` [Compound 20.7, 1-(4-(cis-2,6-Dimethylmorpholino)phenyl)-5,7-difluoro-1H-indazol-6-ol] was more than 7.00.
Regarding `CS(=O)(=O)N1CCN(c2ccc(-n3ncc4cc(F)c(O)c(F)c43)c(F)c2)CC1` [Compound 20.8, 5,7-Difluoro-1-(2-fluoro-4-(4-(methylsulfonyl)piperazin-1-yl)phenyl)-1H-indazol-6-ol], the pIC50 is more than 7.00.
The result for `CC(C)C1CCN(c2ccc(-n3ncc4cc(F)c(O)c(F)c43)cc2)CC1` [Compound 20.9, 5,7-Difluoro-1-(4-(4-isopropylpiperidin-1-yl)phenyl)-1H-indazol-6-ol] reads more than 7.00.
Turning to `Oc1c(F)cc2nnn(-c3ccc(N4CC5(CCOCC5)C4)cc3)c2c1F` [Compound 20.10, 1-(4-(7-Oxa-2-azaspiro[3.5]nonan-2-yl)phenyl)-5,7-difluoro-1H-benzo[d][1,2,3]triazol-6-ol], the pIC50 was more than 7.00.
Regarding `Oc1c(F)cc2ncn(-c3ccc(N4CC5(CCOCC5)C4)cc3)c2c1F` [Compound 20.11, 1-(4-(7-Oxa-2-azaspiro[3.5]nonan-2-yl)phenyl)-5,7-difluoro-1H-benzo[d]imidazol-6-ol], the negative logarithm of the IC50 (pIC50) was 6.00 to 7.00.
The value for `CC1(C)CN(c2ccc(-n3ncc4cc(F)c(O)c(F)c43)cc2)CC(C)(C)O1` [Compound 20.12, 5,7-Difluoro-1-(4-(2,2,6,6-tetramethylmorpholino)phenyl)-1H-indazol-6-ol] was more than 7.00.
As for `CS(=O)(=O)C1CN(c2ccc(-n3nnc4cc(F)c(O)c(F)c43)cc2)C1` [Compound 20.14, 5,7-Difluoro-1-(4-(3-(methylsulfonyl)azetidin-1-yl)phenyl)-1H-benzo[d][1,2,3]triazol-6-ol], the pIC50 is 6.00 to 7.00.
`CS(=O)(=O)C1CN(c2ccc(-n3cnc4cc(F)c(O)c(F)c43)cc2)C1` [Compound 20.15, 5,7-Difluoro-1-(4-(3-(methylsulfonyl)azetidin-1-yl)phenyl)-1H-benzo[d]imidazol-6-ol]: the pIC50 is 4.52 to 6.00.
